From US20210368850A1, “VAPORIZABLE FORMULATION” (NICOVENTURES TRADING LIMITED, priority 2018, published 2021)

Columns and labels:
[1] = Thermogravimetric analysis (TGA) of mass loss on heating; type: physicochemical; conditions: 30° C. to 600° C. at 5° C./min; for Tpeak of mass loss (° C.) Air (rep 1) / Tpeak of mass loss (° C.) Air (rep 2): TGA in air; for Tpeak of mass loss (° C.) Nitrogen (rep 1) / Tpeak of mass loss (° C.) Nitrogen (rep 2): TGA in nitrogen
Experimental: Prior to panel testing, the cooling agents were subjected to thermogravimetric analysis (TGA) to understand their behavior as they are heated. As is known in the art, TGA is an analytical method which can monitor the mass loss of a sample as it is heated to temperatures of up to 1000° C. and higher.
All measurements were carried out on a Perkin Elmer STA6000 TGA thermogravimetric analyzer. For solid samples, a spatula was used to transfer 5-20 mg of material into the crucible of the analyzer. Oils were introduced to the instrument by transferring 5-20 mg using a Pasteur pipette onto a small portion of Cambridge filter pad which was placed in the crucible. All samples were heated from 30° C. to 600° C. at a constant rate of 5° C./min. This was carried out for each compound twice in air and twice in nitrogen. For a small number of samples, the run was stopped at 500-600° C. when full mass loss had been observed. For comparative purposes, menthol was also analyzed.
The onset temperature of mass loss for each compound was determined by visual inspection of the TGA traces on the computer software and the results are summarized in Table 2.

[2] = cited from earlier work; for Vapor pressure (mmHg) @ 25° C.: approximate, from the literature
[3] = system: volunteers; assay: Example 1 observational testing: perceived cooling intensity, Vype eTank Pro e-cigarette; type: in vivo; conditions: 10 volunteers
Experimental: 10 volunteers were asked to use each cooling agent sample in a Vype eTank Pro (an electronic cigarette device). All cooling agents were used at a concentration of 0.18% except for menthol which in one sample was used at the current commercial concentration of 1.235%. Each of the menthol samples were tested for comparative purposes.
(§1) Each volunteer was asked to assess the cooling intensity on an objective basis (i.e. not considering personal preference) and a subjective basis. The objective assessment required the volunteer to rate the overall perceived cooling intensity from 0 to 10, where 0 was no cooling perceivable and 10 was very strong cooling sensation, and to place the cooling sensation, e.g. in the mouth, throat etc. The subjective assessment required the cooling intensity to be ranked as (1) much too low, (2) slightly too low, (3) just right, (4) slightly too high or (5) much too high.

[4] = from the literature, cited from earlier work; for Boiling point (° C.) @ 760 mmHg unless stated: @ 760 mmHg (atmospheric pressure), approximate
[5] = system: volunteers; assay: Example 2: cooling intensity of WS-3 e-liquid samples, eTank Pro e-cigarette; type: in vivo; conditions: minimum of 4 volunteers, scale 0-10
Description: A minimum of 4 volunteers were asked to test each of the following e-liquid samples in an eTank Pro (an electronic cigarette device): • WS-3 at 2.5 wt % in glycerol/propylene glycol; • WS-3 at 5 wt % in glycerol/propylene glycol; and • WS-3 at 10 wt % in glycerol/propylene glycol.
as §1, with “basis in the same manner as Example 1.” for “basis.”

[6] = 0.18% in e-liquid, 0 = no cooling perceivable, 10 = very strong cooling sensation

Structure (SMILES)	Tpeak of mass loss (° C.) Air (rep 1) [1] [°C]	Tpeak of mass loss (° C.) Air (rep 2) [1] [°C]	Tpeak of mass loss (° C.) Nitrogen (rep 1) [1] [°C]	Tpeak of mass loss (° C.) Nitrogen (rep 2) [1] [°C]	Vapor pressure (mmHg) @ 25° C. [2] [mmHg]	Average Cooling Intensity (0-10) [3, 6]	Boiling point (° C.) @ 760 mmHg unless stated [4]	Boiling point (° C.) ([4]; @ 2.00 mmHg)	Average Cooling Intensity (0-10) ([5]; 2.5 wt % in glycerol/propylene glycol)	Average Cooling Intensity (0-10) ([5]; 5 wt % in glycerol/propylene glycol)	Average Cooling Intensity (0-10) ([5]; 10 wt % in glycerol/propylene glycol)	Vapor pressure ([2]; 25° C.)	Average Cooling Intensity (0-10) ([3]; 1.235% (current commercial concentration) in e-liquid, scale 0-10)
CC(C)[C@@H]1CC[C@@H](C)CC12OCC(CO)O2 (single isomer, unassigned; (-)) [Frescolat ® MGA, (−)-menthone 1,2-glycerol ketal]	93	85	102	94	2.15E−5	1	138-142 °C	–	–	–	–	–	–
CC(C)[C@@H]1CC[C@@H](C)C[C@H]1C(=O)NCCc1ccccn1 [Evercool ® 190, (1R,2S,5R)-N-(2-(pyridin-2-yl)ethyl)menthylcarboxamide]	161	164	169	174	1.06E−8	7.1	461.6 ± 24.0 °C	–	–	–	–	–	–
CC(O)C(=O)O[C@@H]1C[C@H](C)CC[C@H]1C(C)C (stereo partly drawn) [Frescolat ® ML, (−)-menthyl lactate]	86	88	86	91	8.58E−5	2	304.0 ± 15.0 °C	–	–	–	–	–	–
CCOC(=O)CNC(=O)[C@@H]1C[C@H](C)CC[C@H]1C(C)C [WS-5, ethyl-2-[[(1R,2S,5R)-5-methyl-2-propan-2-ylcyclohexanecarbonyl]amino] acetate]	149	151	154	158	–	2.5454	–	151.00 (@ 2.00 mmHg) ° C.	–	–	–	–	–
CC(C)[C@@H]1CC[C@@H](C)C[C@H]1OC(=O)CCC(=O)O [Monomenthyl succinate, (−)-menthyl succinate]	144	148	151	151	1.23E−6	–	374.35 °C	–	–	–	–	–	–
CNC(=O)C(C)(C(C)C)C(C)C [WS-23, N,2,3-trimethyl-2-propan-2-ylbutanamide]	88	88	90	86	–	2.1818	233.00-234.00 °C	–	–	–	–	–	–
CC(C)[C@@H]1CC[C@@H](C)C[C@H]1OCC(O)CO (stereo partly drawn) [Coolact ® 10, 3-((−)-menthoxy)propane-1,2-diol]	119	112	115	119	9.88E−7	0.75	362.8 ± 22.0 °C	–	–	–	–	–	–
CCNC(=O)[C@H]1C[C@@H](C)CC[C@@H]1C(C)C (stereo in doubt) [WS-3, (1S,2R,5S)-N-ethyl-5-methyl-2-(propan-2-yl)cyclohexanecarboxamide]	127	132	132	128	8.50E−5	3.045	340.55 °C	–	6	8.5	9.8	–	–
CC1CCC(C(C)C)C(O)C1 (stereo not shown) [Menthol, menthol, reference compound]	53	55	52	55	–	2.1	212 °C	–	–	–	–	approximately 1.02 Pa	8
COc1ccc(NC(=O)[C@@H]2C[C@H](C)CC[C@H]2C(C)C)cc1 [WS-12]	202	203	199	197	3.25E−8	–	447.8 ± 28.0 °C	–	–	–	–	–	–
